PMC9884808, “Pharmacokinetics, tissue distribution, and antitumor activity of a novel compound, NY-2, in non-small cell lung cancer” (Frontiers in Pharmacology, 2023)
Entries after “also recorded” stand apart in the source; their conditions may differ.

Columns and labels:
T47D = experiment: MTT cell viability assay; format: cell-based, human; details: Homo sapiens, T47D breast cancer cells
Method: (§1) The human colorectal cancer cell lines, HCT116 and LoVo, the breast cancer cell line, T47D, the hepatocellular carcinoma cell line, HepG2, the normal human liver cell line, HL7702, human umbilical vein endothelial cells (HUVECs), and the non-small cell lung cancer cell lines, A549, H1993, HCC827, H460, were purchased from the American Type Culture Collection (Manassas, VA, United States). Cell lines were cultured in the recommended RPMI-1640 medium (AE24464298, Hyclone, United States) and DMEM medium (AE29422278, Hyclone, United States) supplemented with 10% fetal bovine serum (FBS; JC63470, FB15015, Clark, United States) with 1% penicillin-streptomycin. Cells were maintained in an incubator at 37°C with 5% CO2 (HF90,Sanyo, Japan) and passaged every 48–72 h, after detaching with 0.25% trypsin (Sigma, United States). The compounds ZLDI-8 and NY-1 to -15 were synthesized in the laboratory of Dr. Huaiwei Ding in Shenyang Pharmaceutical University, and verified by high-performance liquid chromatography (purity >95%) for use in experiments (Supplementary Figure S1). Paclitaxel was purchased from MedChemExpress (HY-B0015, 99.97% purity, United States).
(§2) Cell viability was measured by the MTT assay. HCT116, HL7702, A549, H1993, HCC827, and H460 cells were dispensed into 96-well plates at a density of 1 × 10^5 cells/mL. After 24–48 h incubation, cells were treated with the compounds at different concentrations for the indicated periods. An assay kit (WLA073, Wanlei Co., Liaoning, China), was used according to the manufacturer’s instructions to measure LDH activity, The absorbance at 450 nm was measured with a microplate reader (Elx-800, Bio-Rad, China).
(§3) The preliminary antitumor activity of the series of ZLDI-8 derivatives, NY-1 to -15 was screened by the MTT cell viability assay. […] The antitumor activity of NY-2 on HCT116 cells was concentration- and time-dependent, and slightly better than that of the original compound, ZLDI-8.

HepG2 = experiment: MTT cell viability assay; format: cell-based, human; details: Homo sapiens, HepG2 hepatocellular carcinoma cells
Method: as §1, §2, §3

A549 = experiment: MTT cytotoxicity assay, NSCLC cells; format: cell-based; details: Homo sapiens, 48 h
Method: as §1, §2
(§4) First, the effects of NY-2 and ZLDI-8 on the survival rates of four NSCLC cell lines, A549, H1993, HCC827, H460, were compared by the MTT cytotoxicity assay. The various types of NSCLC cells were incubated with increasing concentrations of NY-2 and ZLDI-8 (1.25, 2.5, 5, 10, and 20 μM), and the cell viability at 48 h was measured. […] Considering that the culture time might be too long, NY-2 was selected for 48 h treatment at increasing concentrations of 2.5, 5.0, and 10 μM as the experimental conditions for subsequent in vitro experiments.

H1993 = experiment: MTT cytotoxicity assay, NSCLC cells; format: cell-based; details: Homo sapiens, NCI-H1993, 48 h
Method: as §1, §2, §4

H460 = experiment: MTT cytotoxicity assay, NSCLC cells; format: cell-based; details: Homo sapiens, NCI-H460, 48 h
Method: as §1, §2, §4

HCC827 = experiment: MTT cytotoxicity assay, NSCLC cells; format: cell-based; details: Homo sapiens, 48 h
Method: as §1, §2, §4

[1] = test system: normal human liver cell line, HL7702; experiment: MTT cytotoxicity on normal cells; format: cell-based; details: 48 h; for cytotoxic effects on normal liver cells (HL7702): concentration ≤10 μM
Method: as §1, §2
First, the effects of NY-2 and ZLDI-8 on the survival rates of four NSCLC cell lines, A549, H1993, HCC827, H460, were compared by the MTT cytotoxicity assay. The various types of NSCLC cells were incubated with increasing concentrations of NY-2 and ZLDI-8 (1.25, 2.5, 5, 10, and 20 μM), and the cell viability at 48 h was measured. […]

Cc1c(C=C2C(=O)NC(=S)NC2=O)c2ccccc2n1CCOc1ccc(F)cc1 [NY-2]
IC50 (T47D): 34.7 µM
IC50 (HepG2): 20 µM
IC50 (A549): 8.95 ± 0.58 µM
IC50 (H1993): 4.78 ± 0.64 µM
IC50 (H460): 13.5 ± 0.58 µM
IC50 (HCC827): 5.98 ± 0.75 µM
cytotoxic effects on normal liver cells (HL7702) [1]: neither ZLDI-8 nor NY-2 had any obvious cytotoxic effects on normal cells; also recorded: no obvious cytotoxic effects
toxic effects on normal liver cells (HL7702) ([1]; concentrations >10 μM): slightly weaker toxic effects than ZLDI-8

Cc1ccc(OCCn2c(C)c(C=C3C(=O)NC(=S)NC3=O)c3ccccc32)c(C)c1 [ZLDI-8, reference compound]
IC50 (T47D): 29.1 µM
IC50 (HepG2): 22.9 µM
IC50 (A549): 23.1 ± 2.27 µM
IC50 (H1993): 8.33 ± 1.01 µM
IC50 (H460): 25.2 ± 2 µM
IC50 (HCC827): 9.39 ± 0.99 µM
cytotoxic effects on normal liver cells (HL7702) [1]: neither ZLDI-8 nor NY-2 had any obvious cytotoxic effects on normal cells
